Reference: patent US10798941B2, “Microbiocidal oxadiazole derivatives” (SYNGENTA PARTICIPATIONS AG, priority 2016, dated 2020)

What was measured:
[1] = test system: Glomerella Lagenarium (Colletotrichum Lagenarium); test: Glomerella lagenarium (Colletotrichum lagenarium) liquid culture / cucumber / preventative (anthracnose); format: cell-based; conditions: Colletotrichum orbiculare; 20 ppm in the applied formulation; liquid culture in PDB, 24° C., inhibition of growth measured photometrically 3 to 4 days after application, vs untreated; read-out: disease control
Procedure, shortened: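 Conidia from cryogenic storage were mixed into potato dextrose broth. This was added to compound diluted from DMSO into 0.025% Tween20, tested at 20 ppm. Plates were incubated in the dark at 24 °C and 96% relative humidity, and growth was read photometrically after 2–7 days as % activity versus untreated check.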

Phakopsora pachyrhizi = Phakopsora pachyrhizi / soybean / leaf disc preventative (Asian soybean rust); format: in vivo; conditions: foliar, 288 h, 200 ppm in the applied formulation, soybean leaf disks, inoculated one day after application, assessed 12 to 14 days after application, vs untreated, read-out: disease control
Procedure, shortened: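 Read-out is percent disease control relative to untreated check discs, assessed once untreated discs show adequate disease, 12 to 14 days after application. Compounds, tested at 200 ppm in the applied formulation, are sprayed onto soybean leaf discs one day before inoculation with a spore suspension.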

[2] = test system: Puccinia recondita f. Sp. Tritici; test: Puccinia recondita f. sp. tritici / wheat / leaf disc preventative (brown rust); format: in vivo; conditions: foliar, 168 h, 200 ppm in the applied formulation, wheat leaf segments cv. Kanzler, preventative, inoculated 1 day after application, assessed 7 to 9 days after application, vs untreated, read-out: disease control
Procedure, shortened: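 Preventative leaf-segment test: spray application of diluted formulated compound on wheat cv. Kanzler, spore inoculation after 1 day. Percent control relative to untreated segments rated 7 to 9 days post-application, with incubation at 19° C, 75% relative humidity, 12 h photoperiod.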

[3] = test system: Puccinia recondita f. Sp. Tritici; test: Puccinia recondita f. sp. tritici / wheat / leaf disc curative (brown rust); format: in vivo; conditions: foliar, 144 h, 200 ppm in the applied formulation, wheat leaf segments cv. Kanzler, applied 1 day after inoculation, assessed 6 to 8 days after application, vs untreated, read-out: disease control
Procedure, shortened: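 Compound applied 1 day after spore inoculation of wheat cv. Kanzler leaf segments on agar (dark, 19 °C, 75% RH before treatment). After further incubation under 12 h light/12 h dark at 19 °C and 75% RH, disease control relative to untreated segments rated 6–8 days post-application.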

CC(C)c1nccn1Cc1ccc(-c2noc(C(F)(F)F)n2)cc1 [Compound 1.56, 3-[4-[(2-isopropylimidazol-1-yl)methyl]phenyl]-5-(trifluoromethyl)-1,2,4-oxadiazole]
≥ 80%: inhibition of growth at 20 ppm [1] | pest or weed control at 200 ppm (Phakopsora pachyrhizi) | pest or weed control at 200 ppm [2] | pest or weed control at 200 ppm [3]

FC(F)(F)c1nc(-c2ccc(Cn3cnc(Br)c3)cc2)no1 [Compound 1.79, 3-[4-[(4-bromoimidazol-1-yl)methyl]phenyl]-5-(trifluoromethyl)-1,2,4-oxadiazole]
≥ 80%: inhibition of growth at 20 ppm [1] | pest or weed control at 200 ppm (Phakopsora pachyrhizi) | pest or weed control at 200 ppm [2] | pest or weed control at 200 ppm [3]

O=Cc1ccn(Cc2ccc(-c3noc(C(F)(F)F)n3)cc2)n1 [Compound 1.85, 1-[[4-[5-(trifluoromethyl)-1,2,4-oxadiazol-3-yl]phenyl]methyl]pyrazole-3-carbaldehyde]
≥ 80%: inhibition of growth at 20 ppm [1] | pest or weed control at 200 ppm (Phakopsora pachyrhizi) | pest or weed control at 200 ppm [2] | pest or weed control at 200 ppm [3]

FC(F)(F)c1nc(-c2ccc(Cn3cc4ccccc4n3)cc2)no1 [Compound 1.86, 3-[4-(indazol-2-ylmethyl)phenyl]-5-(trifluoromethyl)-1,2,4-oxadiazole]
≥ 80%: inhibition of growth at 20 ppm [1] | pest or weed control at 200 ppm (Phakopsora pachyrhizi) | pest or weed control at 200 ppm [2] | pest or weed control at 200 ppm [3]

FC(F)(F)c1nc(-c2ccc(Cn3ncc4ccccc43)cc2)no1 [Compound 1.87, 3-[4-(indazol-1-ylmethyl)phenyl]-5-(trifluoromethyl)-1,2,4-oxadiazole]
≥ 80%: inhibition of growth at 20 ppm [1] | pest or weed control at 200 ppm (Phakopsora pachyrhizi) | pest or weed control at 200 ppm [2] | pest or weed control at 200 ppm [3]

COC(=O)c1cn(Cc2ccc(-c3noc(C(F)(F)F)n3)cc2)cn1 [Compound 1.88, methyl 1-[[4-[5-(trifluoromethyl)-1,2,4-oxadiazol-3-yl]phenyl]methyl]imidazole-4-carboxylate]
≥ 80%: inhibition of growth at 20 ppm [1] | pest or weed control at 200 ppm (Phakopsora pachyrhizi) | pest or weed control at 200 ppm [2] | pest or weed control at 200 ppm [3]

FC(F)(F)c1cn(Cc2ccc(-c3noc(C(F)(F)F)n3)cc2)cn1 [Compound 1.90]
≥ 80%: inhibition of growth at 20 ppm [1] | pest or weed control at 200 ppm (Phakopsora pachyrhizi) | pest or weed control at 200 ppm [2] | pest or weed control at 200 ppm [3]

Cc1nc(Br)cn1Cc1ccc(-c2noc(C(F)(F)F)n2)cc1 [Compound 1.91, 3-[4-[(4-bromo-2-methyl-imidazol-1-yl)methyl]phenyl]-5-(trifluoromethyl)-1,2,4-oxadiazole]
≥ 80%: inhibition of growth at 20 ppm [1] | pest or weed control at 200 ppm (Phakopsora pachyrhizi) | pest or weed control at 200 ppm [2] | pest or weed control at 200 ppm [3]

Cc1cc(C#N)nn1Cc1ccc(-c2noc(C(F)(F)F)n2)cc1 [Compound 1.93, 5-methyl-1-[[4-[5-(trifluoromethyl)-1,2,4-oxadiazol-3-yl]phenyl]methyl]pyrazole-3-carbonitrile]
≥ 80%: inhibition of growth at 20 ppm [1] | pest or weed control at 200 ppm (Phakopsora pachyrhizi) | pest or weed control at 200 ppm [2] | pest or weed control at 200 ppm [3]

FC(F)(F)c1nc(-c2ccc(Cn3cnc(I)c3)cc2)no1 [Compound 1.96, 3-[4-[(4-iodoimidazol-1-yl)methyl]phenyl]-5-(trifluoromethyl)-1,2,4-oxadiazole]
≥ 80%: inhibition of growth at 20 ppm [1] | pest or weed control at 200 ppm (Phakopsora pachyrhizi) | pest or weed control at 200 ppm [2] | pest or weed control at 200 ppm [3]

Cc1cc(C)n(Cc2ccc(-c3noc(C(F)(F)F)n3)cc2F)n1 [Compound 1.102, 3-[4-[(3,5-dimethylpyrazol-1-yl)methyl]-3-fluoro-phenyl]-5-(trifluoromethyl)-1,2,4-oxadiazole]
≥ 80%: inhibition of growth at 20 ppm [1] | pest or weed control at 200 ppm (Phakopsora pachyrhizi) | pest or weed control at 200 ppm [2] | pest or weed control at 200 ppm [3]

Fc1cc(-c2noc(C(F)(F)F)n2)ccc1Cn1ccnc1 [Compound 1.129, 3-[3-fluoro-4-(imidazol-1-ylmethyl)phenyl]-5-(trifluoromethyl)-1,2,4-oxadiazole]
≥ 80%: inhibition of growth at 20 ppm [1] | pest or weed control at 200 ppm (Phakopsora pachyrhizi) | pest or weed control at 200 ppm [2] | pest or weed control at 200 ppm [3]

FC(F)(F)c1nc(-c2ccc(Cn3cnc(Br)c3)nc2)no1 [Compound 1.136, 3-[6-[(4-bromoimidazol-1-yl)methyl]-3-pyridyl]-5-(trifluoromethyl)-1,2,4-oxadiazole]
≥ 80%: inhibition of growth at 20 ppm [1] | pest or weed control at 200 ppm (Phakopsora pachyrhizi) | pest or weed control at 200 ppm [2] | pest or weed control at 200 ppm [3]

O=C(O)c1cnn(Cc2ccc(-c3noc(C(F)(F)F)n3)cc2)c1 [Compound 1.147, 1-[[4-[5-(trifluoromethyl)-1,2,4-oxadiazol-3-yl]phenyl]methyl]pyrazole-4-carboxylic acid]
≥ 80%: inhibition of growth at 20 ppm [1] | pest or weed control at 200 ppm (Phakopsora pachyrhizi) | pest or weed control at 200 ppm [2] | pest or weed control at 200 ppm [3]

O=Cc1cn(Cc2ccc(-c3noc(C(F)(F)F)n3)cc2)cn1 [Compound 1.151, 1-[[4-[5-(trifluoromethyl)-1,2,4-oxadiazol-3-yl]phenyl]methyl]imidazole-4-carbaldehyde]
≥ 80%: inhibition of growth at 20 ppm [1] | pest or weed control at 200 ppm (Phakopsora pachyrhizi) | pest or weed control at 200 ppm [2] | pest or weed control at 200 ppm [3]

N#Cc1cn(Cc2ccc(-c3noc(C(F)(F)F)n3)cc2)cn1 [Compound 1.154, 1-[[4-[5-(trifluoromethyl)-1,2,4-oxadiazol-3-yl]phenyl]methyl]imidazole-4-carbonitrile]
≥ 80%: inhibition of growth at 20 ppm [1] | pest or weed control at 200 ppm (Phakopsora pachyrhizi) | pest or weed control at 200 ppm [2] | pest or weed control at 200 ppm [3]

FC(F)Sc1nc(-c2ccc(Cl)cc2)cn1Cc1ccc(-c2noc(C(F)(F)F)n2)cc1 [Compound 1.174, 3-[4-[[4-(4-chlorophenyl)-2-(difluoromethyl-sulfanyl)imidazol-1-yl]methyl]phenyl]-5-(trifluoromethyl)-1,2,4-oxadiazole]
≥ 80%: inhibition of growth at 20 ppm [1] | pest or weed control at 200 ppm (Phakopsora pachyrhizi) | pest or weed control at 200 ppm [2] | pest or weed control at 200 ppm [3]

COC(=O)c1cccc2nn(Cc3ccc(-c4noc(C(F)(F)F)n4)cc3)cc12 [Compound 1.192, methyl 2-[[4-[5-(trifluoromethyl)-1,2,4-oxadiazol-3-yl]phenyl]methyl]indazole-4-carboxylate]
≥ 80%: inhibition of growth at 20 ppm [1] | pest or weed control at 200 ppm (Phakopsora pachyrhizi) | pest or weed control at 200 ppm [2] | pest or weed control at 200 ppm [3]

Nc1nc(C(F)(F)F)nn1Cc1ccc(-c2noc(C(F)(F)F)n2)cc1 [Compound 1.200, 5-(trifluoromethyl)-2-[[4-[5-(trifluoromethyl)-1,2,4-oxadiazol-3-yl]phenyl]methyl]-1,2,4-triazol-3-amine]
≥ 80%: inhibition of growth at 20 ppm [1] | pest or weed control at 200 ppm (Phakopsora pachyrhizi) | pest or weed control at 200 ppm [2] | pest or weed control at 200 ppm [3]

CCCSc1ncn(Cc2ccc(-c3noc(C(F)(F)F)n3)cc2)n1 [Compound 1.206, 3-[4-[(3-propylsulfanyl-1,2,4-triazol-1-yl)methyl]phenyl]-5-(trifluoromethyl)-1,2,4-oxadiazole]
≥ 80%: inhibition of growth at 20 ppm [1] | pest or weed control at 200 ppm (Phakopsora pachyrhizi) | pest or weed control at 200 ppm [2] | pest or weed control at 200 ppm [3]

CCCSc1ncnn1Cc1ccc(-c2noc(C(F)(F)F)n2)cc1 [Compound 1.207, 3-[4-[(5-propylsulfanyl-1,2,4-triazol-1-yl)methyl]phenyl]-5-(trifluoromethyl)-1,2,4-oxadiazole]
≥ 80%: inhibition of growth at 20 ppm [1] | pest or weed control at 200 ppm (Phakopsora pachyrhizi) | pest or weed control at 200 ppm [2] | pest or weed control at 200 ppm [3]
